As usually defined, the IC50 is the point on the concentration scale where inhibition reaches its midpoint.

The source of these data is patent publication US20240383893A1, “Hydroxamic Acid Compound Having ENPP1 Inhibitory Activity and Use Thereof” (Haihe Biopharma Co., Ltd., priority 2021, published 2024).

ENPP1 (hENPP1-ECD-His), sequence (P22413 98-925): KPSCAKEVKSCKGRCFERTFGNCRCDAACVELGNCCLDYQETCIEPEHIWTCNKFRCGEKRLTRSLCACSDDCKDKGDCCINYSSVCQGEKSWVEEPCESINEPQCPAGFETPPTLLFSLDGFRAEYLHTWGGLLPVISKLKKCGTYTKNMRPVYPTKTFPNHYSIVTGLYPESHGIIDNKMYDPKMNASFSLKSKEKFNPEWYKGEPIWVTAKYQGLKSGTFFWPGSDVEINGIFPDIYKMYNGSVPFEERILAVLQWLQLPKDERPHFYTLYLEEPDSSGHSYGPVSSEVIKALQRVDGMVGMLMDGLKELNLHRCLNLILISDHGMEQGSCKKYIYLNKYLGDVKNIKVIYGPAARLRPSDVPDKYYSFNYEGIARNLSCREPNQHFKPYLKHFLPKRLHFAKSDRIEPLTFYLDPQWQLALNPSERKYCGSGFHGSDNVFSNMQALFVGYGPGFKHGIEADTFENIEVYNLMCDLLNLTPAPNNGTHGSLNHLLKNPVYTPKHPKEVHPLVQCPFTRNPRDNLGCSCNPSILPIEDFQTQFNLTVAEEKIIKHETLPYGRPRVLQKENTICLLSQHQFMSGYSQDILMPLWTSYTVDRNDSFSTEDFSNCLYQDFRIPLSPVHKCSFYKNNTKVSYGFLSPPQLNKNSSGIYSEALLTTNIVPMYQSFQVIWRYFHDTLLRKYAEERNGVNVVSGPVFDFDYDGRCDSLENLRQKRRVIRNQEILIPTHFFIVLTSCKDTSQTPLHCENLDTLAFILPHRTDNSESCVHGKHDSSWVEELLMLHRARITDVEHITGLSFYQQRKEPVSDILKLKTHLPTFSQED

This test concerns the target ENPP1 (hENPP1-ECD-His) (Homo sapiens (Human), UniProt P22413).
Compound `COc1ccc2c(Nc3ccc(CC(=O)NO)cc3)ccnc2c1` [Compound 4] gave an IC50 of 2.62 nM. The result for `COc1cccc2c(Oc3ccc(CC(=O)NO)cc3)c(C#N)cnc12` [Compound 5] reads 150 nM; that for `COc1ccc2c(Oc3ccc(CC(=O)NO)cc3)ncnc2c1` [Compound 8], 2.17 nM; that for `COc1ccc2c(Nc3ccc(CC(=O)NO)cc3)ncnc2c1` [Compound 10], 2.7 nM.

As to `COc1cc2ncnc(Oc3ccc(CC(=O)NO)cc3)c2cc1OC` [Compound 11], half-maximal inhibition (IC50) was put at 28 nM.

`COc1cc2nccc(Oc3ccc(CC(=O)NO)cc3)c2cc1F` [Compound 13] yielded an IC50 of 1.37 nM. As to `COc1ccc2c(Oc3ccc(CC(=O)NO)cc3)c(C#N)cnc2c1` [Compound 14], it took 1.2 nM to reach half-maximal inhibition (IC50). `Cn1ncc2c(Nc3ccc(CC(=O)NO)cc3)ncnc21` [Compound 15] displayed an IC50 of 19 nM. The result for `O=C(Cc1ccc(Nc2ncnc3ccccc23)cc1)NO` [Compound 16] reads 64 nM; that for `Cn1c(=O)ccc2c(Nc3ccc(CC(=O)NO)cc3)ccnc21` [Compound 18, N-hydroxy-2-(4-((8-methyl-7-oxy-7,8-dihydro-1,8-naphthyridin-4-yl)amino)phenyl)acetamide], 343 nM; that for `COc1cc2nccc(Oc3ccc(CC(=O)NO)cc3)c2cn1` [Compound 19], 2.9 nM.

In the case of `COc1cnc2c(Oc3ccc(CC(=O)NO)cc3)ccnc2c1` [Compound 20], the IC50 came out at 324 nM. The same measure for `COc1ccc2c(Oc3ccc(CC(=O)NO)cc3C)ccnc2n1` [Compound 21]: 3.1 nM. The same measure for `COc1ccc2c(Nc3ccc(CC(=O)NO)cc3)nc(Cl)nc2c1` [Compound 22]: 1.8 nM. In the case of `Cc1cc(Nc2ncnc3ccccc23)ccc1CC(=O)NO` [Compound 24], the IC50 came out at 36 nM.

`COc1ccc2c(Oc3ccc(CC(=O)NO)c(F)c3)ccnc2n1` [Compound 25] yielded an IC50 of 1.9 nM. The same measure for `COc1ccc2c(Oc3ccc(CC(=O)NO)cc3F)ccnc2n1` [Compound 26]: 1.3 nM; for `COc1ccc2c(Oc3ccc(C(C)C(=O)NO)cc3)ccnc2n1` (stereo not drawn) [Compound 27]: 2.1 nM; for `Cn1ncc2c(Oc3ccc(CC(=O)NO)cc3)ccnc21` [Compound 28]: 14 nM. The result for `Cn1ncc2ncnc(Nc3ccc(CC(=O)NO)cc3)c21` [Compound 29] reads 14 nM; that for `O=C(Cc1ccc(Nc2ncnc3nc(O)ccc23)cc1)NO` [Compound 31], 20 nM.

For the compound `CCn1ncc2c(Nc3ccc(CC(=O)NO)cc3)ncnc21` [Compound 33], the midpoint of inhibition, the IC50, lay at 2.4 nM. The same measure for `O=C(Cc1ccc(Nc2ncnc3c2cnn3C2CC2)cc1)NO` [Compound 34]: 376 nM; for `O=C(Cc1ccc(Nc2ncnc3cnccc23)cc1)NO` [Compound 35]: 49 nM; for `CC(C(=O)NO)c1ccc(Oc2ccnc3c2cnn3C)cc1` (stereo not drawn) [Compound 36]: 24 nM.

With `COc1ccc2c(Nc3ccc(CC(=O)NO)cc3)nc(C)nc2n1` [Compound 37], inhibition was half-maximal at 2.4 nM (IC50). In turn, `COc1ccc2c(Oc3ccc(C(O)C(=O)NO)cc3)ccnc2n1` (stereo not drawn) [Compound 38] registered an IC50 of 4.4 nM. As to `O=C(Cc1ccc(Nc2ncnc3ncccc23)cc1)NO` [Compound 39], the IC50 came out at 205 nM. In the case of `Cn1ncc2c(Nc3ccc(CC(=O)NO)cc3)ccnc21` [Compound 40], the IC50 is 4.8 nM. The same measure for `Cn1ncc2c(Oc3ccc(C(C)(C)C(=O)NO)cc3)ccnc21` [Compound 41]: 3 nM; for `COc1ccc2c(Nc3ccc(CC(=O)NO)nc3)ccnc2n1` [Compound 44]: 2.7 nM. `COc1ccc2c(Nc3ccc(CC(=O)NO)cn3)ccnc2n1` [Compound 45]: half-maximal inhibition (IC50) was put at 3.1 nM. The same measure for `COc1ccc2c(Oc3cc(F)c(C(C)(C)C(=O)NO)c(F)c3)ccnc2n1` [Compound 46]: 16 nM.

`COc1ccc2c(Nc3cc(F)c(C(C)C(=O)NO)cc3F)ccnc2n1` (stereo not drawn) [Compound 47] showed an IC50 of 4.5 nM. The result for `COc1ccc2c(Nc3cc(F)c(C(C)C(=O)NO)c(F)c3)ccnc2n1` (stereo not drawn) [Compound 48] reads 2.7 nM. Regarding `CCn1ncc2c(Nc3ccc(CC(=O)NO)cc3)ccnc21` [Compound 49], the IC50 stood at 1.4 nM. The same measure for `COc1ccc2c(Nc3ccc4c(c3)CCC4C(=O)NO)ccnc2n1` (stereo not drawn) [Compound 51]: 2.5 nM; for `COc1ccc2c(Nc3cc(F)c(CC(=O)NO)cc3F)ccnc2n1` [Compound 52]: 2.2 nM. The result for `CCn1ncc2c(Oc3ccc(C(C)(C)C(=O)NO)cc3)ccnc21` [Compound 53] reads 2.9 nM; that for `CCn1ncc2c(Oc3ccc(C4(C(=O)NO)CC4)cc3)ccnc21` [Compound 54], 1.6 nM. The result for `Cc1nn(C)c2nccc(Nc3ccc(CC(=O)NO)cc3)c12` [Compound 55] reads 4.3 nM; that for `CCn1ncc2c(Nc3ccc(CC(=O)NO)c(OC)c3)ccnc21` [Compound 56], 2.3 nM; that for `O=C(Cc1ccc(Nc2ncnc3c2cnn3CC(F)(F)F)cc1)NO` [Compound 57], 513 nM. `Cc1cc(Oc2ccc(C(C)(C)C(=O)NO)cc2)c2cnn(C)c2n1` [Compound 58] showed a half-maximal inhibitory concentration (IC50) of 41 nM. `COc1ccc2c(Nc3ccc4c(c3)OCC4C(=O)NO)ccnc2n1` (stereo not drawn) [Compound 59] came in with an IC50 of 1.8 nM.

Take `Cc1ccc2c(Nc3ccc(CC(=O)NO)cc3)ncnc2n1` [Compound 60]: the IC50 amounted to 673 nM. On to `COc1ccc2c(Nc3ccc(C(C)C(=O)NO)c(F)c3)ccnc2n1` (stereo not drawn) [Compound 61], for which half-maximal inhibition (IC50) was put at 1.7 nM. Regarding `COc1ccc2c(Nc3c(F)cc(C(C)C(=O)NO)cc3F)ccnc2n1` (stereo not drawn) [Compound 62], the IC50 came to 1.6 nM. Regarding `COc1ccc2c(Oc3cccc(C(=O)NO)c3)ccnc2n1` [Compound 63], inhibition was half-maximal at 212 nM (IC50). With `CCn1ncc2c(Nc3ccc(C(C)C(=O)NO)c(F)c3)ccnc21` (stereo not drawn) [Compound 65], the midpoint of inhibition, the IC50, lay at 1.9 nM.

Compound `COc1ccc2c(Oc3ccc(C(C)(C)C(=O)NO)cc3)cc(C)nc2n1` [Compound 67] had an IC50 of 1.7 nM. In turn, `COc1ccc2c(Nc3ccc(C(C)(C)C(=O)NO)cc3)ccnc2n1` [Compound 69] returned an IC50 of 1.9 nM. The result for `COc1ccc2c(Nc3cc(F)c(CC(=O)NO)c(F)c3)ccnc2n1` [Compound 70] reads 1.7 nM; that for `COc1ccc2c(Nc3c(F)cc(CC(=O)NO)cc3F)ccnc2n1` [Compound 71], 1.8 nM; that for `COc1ccc2c(Oc3ccc(C(C)C(=O)NO)cc3F)ccnc2n1` (stereo not drawn) [Compound 72], 2.2 nM.

In turn, `CCn1ncc2c(Oc3ccc(C(C)C(=O)NO)cc3)ccnc21` (stereo not drawn) [Compound 73] returned an IC50 of 8.6 nM.

The compound `CCn1nc(C)c2c(Nc3ccc(CC(=O)NO)cc3)ncnc21` [Compound 74] came in with an IC50 of 7.8 nM. The result for `COc1ccc2c(Oc3cccc(CC(=O)NO)c3)ccnc2n1` [Compound 75] reads 112 nM; that for `CCn1ncc2c(Oc3cccc(C(=O)NO)c3)ccnc21` [Compound 76], 289 nM; that for `CCn1ncc2c(Nc3ccc(CC(=O)NO)c(Cl)c3)ccnc21` [Compound 77], 1.2 nM.

Take `COc1ccc2c(Nc3ccc(CC(=O)NO)c(Cl)c3)ccnc2n1` [Compound 78]: the IC50 was 1.8 nM. Regarding `COc1ccc2c(Nc3ccc(CC(=O)NO)c(OC)c3)ccnc2n1` [Compound 79], the IC50 came to 1.9 nM. The same measure for `Cn1ncc2c(Oc3ccc(C4(C(=O)NO)CC4)cc3)ccnc21` [Compound 80]: 1.9 nM. The same measure for `Cn1ncc2c(Nc3ccc(C(C)(C)C(=O)NO)cc3)ccnc21` [Compound 81]: 1.9 nM.

`CCn1ncc2c(Nc3ccc(C(C)(C)C(=O)NO)cc3)ccnc21` [Compound 82] had an IC50 of 1.7 nM.

As for `CCn1nc(C)c2c(Nc3ccc(C(C)(C)C(=O)NO)cc3)ncnc21` [Compound 83], the IC50 came to 4.4 nM. For `Cc1nn(C)c2nccc(Oc3ccc(C(C)(C)C(=O)NO)cc3)c12` [Compound 84], the IC50 was determined as 6.1 nM. As to `COc1ccc2c(Oc3ccc(C(OC)C(=O)NO)cc3)ccnc2n1` (stereo not drawn) [Compound 85], 4.8 nM corresponded to half-maximal inhibition (IC50).

For `COc1ccc2c(N[C@H]3CC[C@H](CC(=O)NO)CC3)ccnc2n1` [Compound 89], the half-inhibitory concentration (IC50) stood at 24 nM.

`COc1ccc2c(Nc3cnn(CC(=O)NO)c3)ccnc2n1` [Compound 90] yielded a 50% inhibitory concentration (IC50) of 4.5 nM. As to `CCn1ncc2c(Nc3ccc(C(C)(C)C(=O)NO)cc3)ncnc21` [Compound 91], half-maximal inhibition (IC50) required 1.2 nM. Compound `COc1ccc2c(Oc3ccc4c(C(=O)NO)cccc4c3)ccnc2n1` [Compound 92] yielded an IC50 of 169 nM.

`CC(C)(C(=O)NO)c1ccc(Oc2ccnc3cc(Cl)ccc23)cc1` [Compound 94] showed an IC50 of 257 nM. The result for `COc1ccc2c(Nc3ccc(CC(=O)NO)c4ccccc34)ccnc2n1` [Compound 96] reads 6.8 nM; that for `COc1cc2nccc(Oc3ccc(C(C)(C)C(=O)NO)cc3)c2cn1` [Compound 97], 1.5 nM; that for `CCOc1ccc2c(Oc3ccc(CC(=O)NO)cc3)ccnc2c1` [Compound 98], 125 nM. The same measure for `COc1ccc2nccc(Oc3ccc(C(C)(C)C(=O)NO)cc3)c2c1` [Compound 99]: 63 nM; for `COc1ccc2c(Nc3ccc(C(C)(C)C(=O)NO)cn3)ccnc2n1` [Compound 101]: 1.1 nM; for `COc1ccc2c(Oc3ccc(C(C)(C)C(=O)NO)c(Cl)c3)ccnc2n1` [Compound 103]: 21 nM. The same measure for `COc1ccc2c(Oc3ccc(C(C)(C)C(=O)NO)c(C)c3)ccnc2n1` [Compound 109]: 2.3 nM; for `COc1ccc2c(Oc3cc(F)c(C(C)(C)C(=O)NO)cc3F)ccnc2n1` [Compound 112]: 2.5 nM. `COc1ccc2c(C(C)c3ccc(C(C)(C)C(=O)NO)cc3)ccnc2n1` (stereo not drawn) [Compound 113] came in with an IC50 of 219 nM. The same measure for `COc1ccc2c(N(C)c3ccc(C(C)(C)C(=O)NO)cc3)ccnc2n1` [Compound 114]: 162 nM. In turn, `COc1ccc2c(OC3CCN(C(C)(C)C(=O)NO)CC3)ccnc2n1` [Compound 116] showed an IC50 of 21 nM.
